Literature values as cited in patent US4833125A, “Method of increasing bone mass” (The General Hospital Corporation, priority 1987, dated 1989).

System: osteoporosis in humans
Conditions: hPTH (1-34) alone, Reeve et al. 1980

hPTH (1-34): fragment of human parathyroid hormone, first thirty-four amino acid residues, given alone in cited trial (SVSEIQLMHNLGKHLNSMERVEWLRKKLQDVHNF; Parathyroid hormone; UniProt P01270 32-65, looked up, fragment)
axial trabecular bone: considerable increase | calcium retention, and hence total bone mass: improved in only about half of these patients
